Literature values as cited in US11077316B2, “Insertion devices and systems for production of emitted light internal to a medium and methods for their use” (Immunolight, LLC, priority 2016, dated 2021).
Where two headings read alike, the source gives them in different places.

How the values were obtained:
Acinetobacter baumannii = conditions: released nitric oxide, light 100 milliWatts per square centimeter
[1] = system: Zaire Ebola virus (ZEBOV); conditions: UV light 310 to 360 nm, ex situ in extracted blood
[2] = system: Venezuelan equine encephalitis virus (VEEV); conditions: INA exposed to full light conditions
[3] = orange juice, high UV exposure of 100 mJ/cm^2

[Mn(PaPy3)(NO)](ClO4)
clearing of bacteria from treated areas of plates (Acinetobacter baumannii): effectively cleared the bacteria

Oc1cccc(-c2c3nc(c(-c4cccc(O)c4)c4ccc([nH]4)c(-c4cccc(O)c4)c4nc(c(-c5cccc(O)c5)c5ccc2[nH]5)CC4)C=C3)c1 [Foscan, Tetra (m-hydroxyphenyl) chlorin]
duration of skin photosensitivity (clinical): approximately 2 weeks

CC(=O)[O-].CC(=O)[O-].CCc1c(CC)c2cc3nc(cnc4cc(OCCOCCOCCOC)c(OCCOCCOCCOC)cc4ncc4nc(cc1[n-]2)C(CCCO)=C4C)C(C)=C3CCCO.O.[Lu+3] [Motexafin lutetium]
duration of skin photosensitivity (in vivo): 24 to 48 h

[N-]=[N+]=Nc1cccc2c(I)cccc12 [INA, 1,5-iodonaphthyl-azide]
infectivity of ZEBOV after INA treatment [1]: completely noninfectious
inactivation of virulent strain of VEEV [2]: efficiently inactivate

O=C1O[C@H]([C@@H](O)CO)C(O)=C1O [Vitamin C]
degradation of Vitamin C [3]: 17%
